Source: patent publication US6828343B2, “Bicyclic pyrrolyl amides as glycogen phosphorylase inhibitors” (Pfizer, Inc., priority 1999, dated 2004)

## O=C(N[C@@H](Cc1ccccc1)C(=O)N1CCOCC1)c1cc2cc(Cl)sc2[nH]1 [Example 19, 2-chloro-6H-thieno[2,3-b]pyrrole-5-carboxylic acid [(1S)-benzyl-2-morpholin-4-yl-2-oxo-ethyl]-amide]
  melting point: 108 to 110 °C
